In patent publication US12391990B2, “Determination of magnesium body concentration” (Vanderbilt University, priority 2019, dated 2025):

What was measured:
[1] = 49 days of Mg repletion after 3-month Mg depletion, previous human study, from 0.81 to 0.86, p=0.06; cited from earlier work
[2] = tested on: 5-hmC levels in rectal tissues; assay: 5-hmC affinity enrichment sequencing of pre- and post-treatment rectal tissues; assay type: in vivo, human; details: rectal tissue
Protocol: 5-hmC alterations induced by Mg treatment. As mentioned, due to technological limitations, distinguishing 5-hmC from 5-mC has only recently been possible. Using the technology an evaluation was conducted of 5-hmC in normal rectal mucosa collected at baseline from 7 participants of the PPCCT. 5-hmC-specific affinity pull-down^142 samples were sequenced using the Illumina next-generation sequencing (50 bp single-end). The raw sequencing reads were mapped to the human genome reference (hg19) using Bowtie2^153. 5-hmC peaks (i.e. enriched 5-hmC regions) were then called using the MACS algorithm^154. There are two important findings. 1) There are approximately 13,000-15,000 high quality 5-hmC peaks across the genomes at p<1e-5 calculated by MACS.
Genome-wide 5-hmC was also measured in pre- (i.e. baseline) and post-treatment rectal tissues (i.e. after 3-month Mg supplementation). In this analysis, one individual was included in the treatment arm and the other in the placebo arm. Two-hundred ninety-six (296) and 1271 genes were found with ≥4-fold or ≥3-fold changes in 5-hmC levels from baseline, respectively, in the treatment arm compared to 39 and 176 in the placebo arm (Table 1). Thus, the treatment arm has a much larger number of affected genes than the placebo arm.
Furthermore, the majority of the changes found in 5-hmC caused by Mg treatment are up-modifications, very consistent with findings from in vitro and in vivo studies of vitamin C treatment^86;87.

[3] = Magnesium tolerance test (MTT), percent Mg retention from 24-hour urine; assay type: in vivo, human; details: after 12-week Mg supplementation, ongoing trial
Text: In a magnesium tolerance test, a health care professional, such as a doctor, gives a participant a shot of a known amount of magnesium and then later uses the participant's urine to determine how much magnesium the participant's body retained, and how much the body eliminated.
In an exemplary study as described herein, participants who completed the study received a schedule of planned magnesium tolerance tests on two consecutive days. A 24-hour urine sample was collected for determining the basal urinary magnesium excretion prior to the intravenous infusion of magnesium sulfate. Another 24-hour urine sample was obtained starting with the IV infusion.
• 1. […] Percentage magnesium retained is calculated by the formula below (Mg: magnesium) […]
A Mg tolerance test, the most accurate approach to evaluate Mg nutriture, is conducted at the end of trial. […] For the Mg tolerance test, the participant's percent retention is calculated by the following formula: [1−(post infusion Mg excretion-pre infusion Mg excretion)/total Mg infused]×100. […]
MTT was conducted on 78 subjects in PPCCT. […] Urine magnesium level was measured using 7D70 Magnesium Reagent Kit from Abbot Laboratories (Abbott Park, TL). […] The absorbance of the arsenazo-magnesium complex is measured at 572 nm and is proportional to the concentration of magnesium present in the sample.

embryonic stem cells = details: vitamin C supplementation, cited from earlier work
[4] = tested on: 5-hmC and 5-mC in tissues; details: vitamin C supplementation, all three tissues; cited from earlier work
[5] = treatment arm, one individual, after 3-month Mg supplementation

Compound | Increase in serum Mg [1] [%] | Direction of the majority of changes in 5-hmC ([2]; Mg treatment) | Number of genes with ≥3-fold change in 5-hmC peaks from baseline [2, 5] | Number of genes with ≥4-fold change in 5-hmC peaks from baseline [2, 5] | Individuals who still had Mg deficiency (retention ≥50% in Mg tolerance test) [3] [%] | Number of genes with over 2-fold changes in expression (embryonic stem cells; primarily up-modifications) | Change in 5-hmC (embryonic stem cells) | 5-hmC concentrations in tissues [4]
NCC(=O)[O-].NCC(=O)[O-].[Mg+2] [Mg] | 6 | up-modifications | 1271 | 296 | 42 | – | – | –
O=C1O[C@H]([C@@H](O)CO)C(O)=C1O [vitamin C] | – | – | – | – | – | approximately 200 | genome-wide increase in 5-hmC | significantly elevated
